How the values were obtained:
[1] = Cytotoxicity against mouse BA/F3 cells expressing EGFR L858R mutant; format: functional, cell-based; conditions: BaF3
[2] = Cytotoxicity against mouse BA/F3 cells expressing EGFR L858R/T790M mutant; format: functional, cell-based; conditions: BaF3

**Q.** With `C#Cc1cccc(Nc2ncnc3cc(OCCOC)c(OCCOC)cc23)c1` [ERLOTINIB] as the compound, how does the IC50 [1] read?
**A.** The IC50 was 12.5 nM.

**Q.** For `CCOc1cc2ncc(C#N)c(Nc3ccc(OCc4ccccn4)c(Cl)c3)c2cc1NC(=O)/C=C/CN(C)C` [NERATINIB], which IC50 [1] is on record?
**A.** Its IC50 is 3.5 nM.

**Q.** And the IC50 [2]?
**A.** The IC50 was 180 nM.
